Read-outs that look alike come from different tables or passages of the source.
Columns and labels:
Androgen receptor (AR) = molecular target: T1, Androgen receptor (AR) (Homo sapiens, UniProt P10275, T878A); experiment: Assessment of AR proteolytic activity (Western blotting of LNCap cell lysates); type: cell-based; conditions: 24 hours of treatment, Western blotting quantified with Image J
T1 construct: 5.5×10^5 LNCap cells were injected into each well of a 6-well plate; endogenous in cells; host or cells: LNCaP
T1 sequence (P10275 1-920 T878A): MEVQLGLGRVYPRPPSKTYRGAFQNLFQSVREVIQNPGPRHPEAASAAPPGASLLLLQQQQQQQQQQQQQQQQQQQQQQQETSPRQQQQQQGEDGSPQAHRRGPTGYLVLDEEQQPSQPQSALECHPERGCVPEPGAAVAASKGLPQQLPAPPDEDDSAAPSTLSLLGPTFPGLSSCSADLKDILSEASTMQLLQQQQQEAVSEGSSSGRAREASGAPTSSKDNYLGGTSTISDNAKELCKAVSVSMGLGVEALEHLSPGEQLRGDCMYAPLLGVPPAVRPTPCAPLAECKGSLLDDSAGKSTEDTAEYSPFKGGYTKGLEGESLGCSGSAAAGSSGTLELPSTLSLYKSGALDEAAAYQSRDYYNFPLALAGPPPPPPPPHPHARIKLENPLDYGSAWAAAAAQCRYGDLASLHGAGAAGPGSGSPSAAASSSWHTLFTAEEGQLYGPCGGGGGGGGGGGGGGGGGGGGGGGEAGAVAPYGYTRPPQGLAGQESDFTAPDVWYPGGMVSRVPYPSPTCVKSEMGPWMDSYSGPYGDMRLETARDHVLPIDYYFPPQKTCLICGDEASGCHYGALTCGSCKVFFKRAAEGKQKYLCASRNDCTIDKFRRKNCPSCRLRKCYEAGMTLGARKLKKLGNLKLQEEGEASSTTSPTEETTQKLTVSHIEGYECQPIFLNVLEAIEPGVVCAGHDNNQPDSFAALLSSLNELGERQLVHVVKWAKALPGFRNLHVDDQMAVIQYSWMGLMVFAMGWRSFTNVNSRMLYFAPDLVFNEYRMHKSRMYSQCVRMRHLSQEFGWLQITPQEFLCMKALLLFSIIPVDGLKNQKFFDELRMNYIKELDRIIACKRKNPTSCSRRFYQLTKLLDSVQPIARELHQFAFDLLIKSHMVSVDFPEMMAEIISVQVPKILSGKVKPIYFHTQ
In short: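 AR degradation read by Western blot densitometry on RIPA lysates (pH 7.5, protease inhibitor cocktail). Lysates came from LNCap cells, 5.5×10^5 per well, exposed to compound for 24 hours.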

VCaP cells = experiment: Cytotoxicity assessment (Cell-titer-glo cell viability), VCaP
LNCaP cells = experiment: Cytotoxicity assessment (Cell-titer-glo cell viability), LNCaP
[1] = read-out: VCaP (CC50), VCaP cells, 6 days of treatment, Cell-titer-glo, vs DMSO
[2] = read-out: LNCAP (CC50), LNCaP cells, 6 days of treatment, Cell-titer-glo, vs DMSO

Compound | remaining activity at 1 µM (Androgen receptor (AR); read-out: Degradation (1 μM treated in LNCaP, % AR remaining)) [%] | CC50 (VCaP cells; Homo sapiens, VCaP, 144 h, read-out: VCaP (CC50, μM)) [µM] | CC50 (LNCaP cells; Homo sapiens, LNCaP, 144 h, read-out: LNCAP (CC50, μM)) [µM] | Degradation (1 μM treated in LNCaP, % AR remaining) (Androgen receptor (AR)) [%] | CC50 (VCaP cells; [1]) [µM] | CC50 (LNCaP cells; [2]) [µM]
CC1(C)[C@H](NC(=O)c2ccc(N3CCN(CC4CCN(c5ccc6nnn(C7CCC(=O)NC7=O)c(=O)c6c5)CC4)CC3)cc2)C(C)(C)[C@H]1Oc1ccc(C#N)c(Cl)c1 (stereo partly drawn) [Example 8, N-((1r,3r)-3-(3-chloro-4-cyanophenoxy)-2,2,4,4-tetramethylcyclobutyl)-4-(4-((1-(3-(2,6-dioxopiperidin-3-yl)-4-oxo-3,4-dihydrobenzo[d][1,2,3]triazin-6-yl)piperidin-4-yl)methyl)piperazin-1-yl)benzamide] | 8.1 | 0.685 | 0.163 | – | – | –
CC1(C)[C@H](NC(=O)c2ccc(N3CCN(CC4CCN(C(=O)C5CCN(c6ccc7nnn(C8CCC(=O)NC8=O)c(=O)c7c6)CC5)CC4)CC3)cc2)C(C)(C)[C@H]1Oc1ccc(C#N)c(Cl)c1 (stereo partly drawn) [Example 10, N-((1r,3r)-3-(3-chloro-4-cyanophenoxy)-2,2,4,4-tetramethylcyclobutyl)-4-(4-((1-(1-(3-(2,6-dioxopiperidin-3-yl)-4-oxo-3,4-dihydrobenzo[d][1,2,3]triazin-6-yl)piperidine-4-carbonyl)piperidin-4-yl)methyl)piperazin-1-yl)benzamide] | – | – | – | 12.5 | 0.257 | 0.19
CC1(C)[C@H](NC(=O)c2ccc(N3CCN(C4CC5(CCN(C(=O)CNc6ccc7nnn(C8CCC(=O)NC8=O)c(=O)c7c6)CC5)C4)CC3)cc2)C(C)(C)[C@H]1Oc1ccc(C#N)c(Cl)c1 (stereo partly drawn) [Example 19, N-((1r,3r)-3-(3-chloro-4-cyanophenoxy)-2,2,4,4-tetramethylcyclobutyl)-4-(4-(7-((3-(2,6-dioxopiperidin-3-yl)-4-oxo-3,4-dihydrobenzo[d][1,2,3]triazin-6-yl)glycyl)-7-azaspiro[3.5]nonan-2-yl)piperazin-1-yl)benzamide] | – | – | – | 23 | 0.0763 | 0.208
CC1(C)[C@H](NC(=O)c2ccc(N3CCN(C4CC5(CCN(C(=O)C6CCN(c7ccc8nnn(C9CCC(=O)NC9=O)c(=O)c8c7)CC6)CC5)C4)CC3)cc2)C(C)(C)[C@H]1Oc1ccc(C#N)c(Cl)c1 (stereo partly drawn) [Example 20, N-((1r,3r)-3-(3-chloro-4-cyanophenoxy)-2,2,4,4-tetramethylcyclobutyl)-4-(4-(7-(1-(3-(2,6-dioxopiperidin-3-yl)-4-oxo-3,4-dihydrobenzo[d][1,2,3]triazin-6-yl)piperidine-4-carbonyl)-7-azaspiro[3.5]nonan-2-yl)piperazin-1-yl)benzamide] | – | – | – | 26 | 0.0542 | 0.178
CC1(C)[C@H](NC(=O)c2ccc(N3CCN(C4CC5(CCN(c6cccc7nnn(C8CCC(=O)NC8=O)c(=O)c67)CC5)C4)CC3)cc2)C(C)(C)[C@H]1Oc1ccc(C#N)c(Cl)c1 (stereo partly drawn) [Example 22, N-((1r,3r)-3-(3-chloro-4-cyanophenoxy)-2,2,4,4-tetramethylcyclobutyl)-4-(4-(7-(3-(2,6-dioxopiperidin-3-yl)-4-oxo-3,4-dihydrobenzo[d][1,2,3]triazin-5-yl)-7-azaspiro[3.5]nonan-2-yl)piperazin-1-yl)benzamide] | – | – | – | 74 | 0.135 | 13.4
CC1(C)[C@H](NC(=O)c2ccc(N3CCN(C4CC5(CCN(c6ccc7nnn(C8CCC(=O)NC8=O)c(=O)c7c6)CC5)C4)CC3)cc2)C(C)(C)[C@H]1Oc1ccc(C#N)c(Cl)c1 (stereo partly drawn) [Example 23, N-((1r,3r)-3-(3-chloro-4-cyanophenoxy)-2,2,4,4-tetramethylcyclobutyl)-4-(4-(7-(3-(2,6-dioxopiperidin-3-yl)-4-oxo-3,4-dihydrobenzo[d][1,2,3]triazin-6-yl)-7-azaspiro[3.5]nonan-2-yl)piperazin-1-yl)benzamide] | – | – | – | 5 | 0.191 | 0.302
